Laboratory results reported in patent EP1905824A1, “A […] AND A METHOD FOR CELL […]” (Olympus Corporation, priority 2005, dated 2006).

Legend:
Assay type in all cases: cell-based, human
[1] = test system: cell line in which only the pd2EGFP-1 vector having no ERE was stably introduced (pdE2-GFP-4); assay: Estrogen signal response assessment (GFP expression), control cell line without ERE; settings: E2 10 nM, two days; regardless of E2-treated/untreated
ERE-GFP-E10 cell line [2] = assay: Estrogen signal response assessment (GFP expression, fluorescence microscope / flow cytometer); settings: E2 10 nM, two days; compared with E2-untreated (low GFP expression level)
ERE-GFP-E10 cell line [3] = assay: MTT assay for living cell counts after addition of E2; settings: E2 0 to 300 pM; four days; absorbance at 560 nm
[4] = test system: MCF7 cell lines (clones) in which the ERE-GFP reporter gene having a sable GFP as the reporter was stably introduced; assay: GFP protein induction with/without estrogen (E2), stable-GFP reporter clones; settings: E2 10 nM, two days
ERE-GFP-E10 cell line [5] = assay: GFP expressing cell counting after addition of E2
[6] = test system: breast cancer tissue-derived adipose stromal cell and ERE-GFP-E10 cell; assay: Co-culture of breast cancer tissue-derived adipose stromal cell and ERE-GFP-E10, detection of estrogen signal; parameters: dose or concentration left out as unconfirmed; settings: testosterone, four days co-culture; compared with no addition of androgen; three breast cancer cases
[7] = E2 3 pM or 1 nM, Day 1 to Day 4, regardless of the amount of E2 added

| Compound | GFP expression [1] | GFP expression level when E2-treated (ERE-GFP-E10 cell line [2]) | living cell count (ERE-GFP-E10 cell line [3]) | GFP expression positive cell rate (%) E2-added group ([4]; clone #16, E2-free group 85) [%] | GFP expression positive cell rate (%) E2-added group ([4]; clone #19, E2-free group 32) [%] | GFP expression positive cell rate (%) E2-added group ([4]; clone #21, E2-free group 5) [%] | GFP expression positive cell rate (%) E2-added group ([4]; clone #28, E2-free group 37) [%] | GFP expression positive cell rate (%) E2-added group ([4]; clone #29, E2-free group 77) [%] | GFP expression positive cell rate (%) E2-added group ([4]; clone #37, E2-free group 83) [%] | E2 concentration at which GFP expression induction was maximized (ERE-GFP-E10 cell line [5]; E2 0, 1, 3, 10, 30, 100, 300 pM, four days) [pM] | day from which GFP expression was observed after the addition of E2 (ERE-GFP-E10 cell line [5]; [7]) [days] | day on which GFP expression positive cell count was maximized (ERE-GFP-E10 cell line [5]; [7]) [days] | minimal effective concentration (ERE-GFP-E10 cell line [5]; Homo sapiens, 96 h, E2 0, 1, 3, 10, 30, 100, 300 pM, four days, read-out: E2 concentration at which a significant level of GFP expression induction was detected) [µM] | GFP positive cell rate in the ERE-GFP-E10 cell [6] |
| --- | --- | --- | --- | --- | --- | --- | --- | --- | --- | --- | --- | --- | --- | --- |
| C[C@]12CC[C@@H]3c4ccc(O)cc4CC[C@H]3[C@@H]1CC[C@@H]2O [E2, 17 β estradiol] | no GFP expression | GFP well induced, having a high expression level | increased dependently on the added E2 concentration | 88 | 73 | 8 | 41 | 83 | 84 | 30 | 1 | 2 | 3e-06 | – |
| C[C@]12CC[C@H]3[C@@H](CCC4=CC(=O)CC[C@@]43C)[C@@H]1CC[C@@H]2O [testosterone] | – | – | – | – | – | – | – | – | – | – | – | – | – | significantly increased |
